Measured values published in patent US10342760B2, “Lipid nanoparticles for transfection and related methods” (The University of British Columbia, priority 2013, dated 2019).

Experiment: Apparent pKa of ionizable cationic lipid
Type: physicochemical

- pKa: 6.3
SMILES: CCCCCCCCC1CC1CCCCCCCCC(CCCCCCCCC1CC1CCCCCCCC)OC(=O)CCCN(C)C (stereo not shown) [Cationic Lipid A, 1,17-bis(2-octylcyclopropyl)heptadecan-9-yl-4-(dimethylamino)butanoate]
